According to US20120238615A1, “Alpha adrenergic receptor modulators” (Allergan, Inc., priority 2009, published 2012):

Target: T1, alpha-2C (Homo sapiens, UniProt P18825)
T1 construct: expressed in transfected cells
T1 sequence (P18825 1-462): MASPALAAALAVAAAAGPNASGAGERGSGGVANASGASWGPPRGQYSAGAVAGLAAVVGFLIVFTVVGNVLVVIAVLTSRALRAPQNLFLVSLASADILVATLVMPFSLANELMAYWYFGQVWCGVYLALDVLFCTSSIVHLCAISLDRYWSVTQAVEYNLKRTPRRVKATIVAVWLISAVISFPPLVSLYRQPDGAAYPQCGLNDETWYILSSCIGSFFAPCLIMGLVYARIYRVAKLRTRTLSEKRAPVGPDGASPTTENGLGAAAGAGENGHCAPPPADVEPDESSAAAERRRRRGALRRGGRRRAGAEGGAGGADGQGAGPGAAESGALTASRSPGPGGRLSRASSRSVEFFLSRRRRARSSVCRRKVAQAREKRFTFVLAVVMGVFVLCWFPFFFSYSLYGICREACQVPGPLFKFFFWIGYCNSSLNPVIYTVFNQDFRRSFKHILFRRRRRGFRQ
Assay: FLIPR calcium assay for alpha adrenergic activity
Format: cell-based
Conditions: cells expressing alpha-2C and G-protein (Gqi5 or G16); for EC50: fluo-4 calcium signal, agonist, read-out: Potency (nM) Alpha 2C (EC50); for efficacy Alpha 2C (relative efficacy compared to a standard full agonist, in parentheses): relative to norepinephrine
Text: Compounds described herein were synthesized and tested for alpha adrenergic activity using a Fluorometric Imaging plate Reader (FLIPR) assay (Princen et al., 2003, Cytometry Part A. 51, pp. 35-45). Cells expressing the receptor of interest (alpha-2C) and a G-protein (Gqi5 or G16) are loaded with fluo-4, a calcium sensitive dye. After removal of excess dye by washing, the cells are placed in the FLIPR TETRA instrument. Baseline fluorescence readings are taken prior to addition of the compounds. Agonists will trigger the receptor to interact with the G-protein, leading to an increase in intracellular calcium. The increase in intracellular calcium causes an increase in the fluorescence of the cells, due to the presence of fluo-4. This fluorescence increase is recorded by the FLIPR TETRA. After the calcium transient signal has decreased towards baseline, the standard agonist norepinephrine is added. If the compound is an antagonist, an initial calcium signal will not be generated and the antagonist will prevent the generation of a calcium signal from norepinephrine. The level of fluorescence is compared to that of norepinephrine, and the EC50 of the compound determined by curve fitting. […] The compounds described herein activate alpha adrenergic receptors.

SMILES | EC50 | efficacy Alpha 2C (relative efficacy compared to a standard full agonist, in parentheses)
Cc1cccc(NC2=NCCC2)c1Cl [Compound 4, N-(2-chloro-3-methylphenyl)-3,4-dihydro-2H-pyrrol-5-amine] | 635 nM | (1)
COc1c(Cl)cccc1NC1=NCCC1 [Compound 2, N-(3-chloro-2-methoxyphenyl)-3,4-dihydro-2H-pyrrol-5-amine] | 975 nM | (1)
Cc1cccc(NC2=NCCC2)c1Br [Compound 1, N-(2-bromo-3-methyl-phenyl)-3,4-dihydro-2H-pyrrol-5-amine] | 663 nM | (1)
Clc1ccccc1NC1=NCCC1 [Compound 11, N-(2-chlorophenyl)-3,4-dihydro-2H-pyrrol-5-amine] | 709 nM | (1)
FC(F)(F)c1ccccc1NC1=NCCC1 [Compound 14, N-[2-(trifluoromethyl)phenyl]-3,4-dihydro-2H-pyrrol-5-amine] | 796 nM | (1)
Cc1cccc(C)c1NC1=NCCC1 [Compound 15, N-(2,6-dimethylphenyl)-3,4-dihydro-2H-pyrrol-5-amine] | 348 nM | (1)
Cc1ccccc1NC1=NCCC1 [Compound 13, N-(2-methylphenyl)-3,4-dihydro-2H-pyrrol-5-amine] | 743 nM | (1)
Cc1c(F)cccc1NC1=NCCC1 [Compound 9, N-(3-fluoro-2-methylphenyl)-3,4-dihydro-2H-pyrrol-5-amine] | 756 nM | (1)

Compounds with a lower EC50, results first:

EC50 | efficacy Alpha 2C (relative efficacy compared to a standard full agonist, in parentheses) | SMILES
118 nM | (1) | Cc1cccc(NC2=NCCC2)c1C [Compound 16, N-(2,3-dimethylphenyl)-3,4-dihydro-2H-pyrrol-5-amine]
44 nM | (1) | Clc1cccc(Cl)c1NC1=NCCC1 [Compound 12, N-(2,6-dichlorophenyl)-3,4-dihydro-2H-pyrrol-5-amine]
288 nM | (1) | Cc1c(Br)cccc1NC1=NCCC1 [Compound 10, N-(3-bromo-2-methylphenyl)-3,4-dihydro-2H-pyrrol-5-amine]
26 nM | (1) | Fc1c(Cl)cccc1NC1=NCCC1 [Compound 6, N-(3-chloro-2-fluorophenyl)-3,4-dihydro-2H-pyrrol-5-amine]
243 nM | (1) | COc1c(C)cccc1NC1=NCCC1 [Compound 5, N-(2-methoxy-3-methylphenyl)-3,4-dihydro-2H-pyrrol-5-amine]
32 nM | (1) | COc1cccc(NC2=NCCC2)c1Br [Compound 7, N-(2-bromo-3-methoxyphenyl)-3,4-dihydro-2H-pyrrol-5-amine]
186 nM | (1) | COc1cccc(NC2=NCCC2)c1C [Compound 8, N-(3-methoxy-2-methylphenyl)-3,4-dihydro-2H-pyrrol-5-amine]
71 nM | (1) | Cc1c(Cl)cccc1NC1=NCCC1 [Compound 3, N-(3-chloro-2-methylphenyl)-3,4-dihydro-2H-pyrrol-5-amine]
